Test system: Staphylococcus aureus
Experiment: Antibacterial activity against methicillin-resistant Staphylococcus aureus harboring 41.7-kilobase conjugative staphylococcal multiresistance plasmid pPR9 conferring high-level mupirocin resistance
Assay type: functional

## C/C(=C\C(=O)OCCCCCCCCC(=O)O)C[C@@H]1OC[C@H](C[C@@H]2O[C@H]2[C@@H](C)[C@H](C)O)[C@@H](O)[C@H]1O [MUPIROCIN]
  MIC: ≥ 1020 µg/mL

Reference: ChEMBL document CHEMBL1671685, “Complete nucleotide sequence and comparative analysis of pPR9, a 41.7-kilobase conjugative staphylococcal multiresistance plasmid conferring high-level mupirocin resistance” (2010)
